This note sets out measurements from US20260131107A1, “CATHETERS” (ConvaTec Limited, priority 2023, published 2026).

For assay [1], the system named is Escherichia coli NCIMB 14067. Briefly: In vitro direct inoculation method, sulfanilamide comparison (Further Assessment 3). In kind it is cell-based. How it is done: (§1) An in vitro direct inoculation method was used to assess the antimicrobial activity of sulfanilamide in an intermittent urinary catheter scenario against […] Escherichia coli NCIMB 14067 and […] Enterococcus faecalis NCTC 12201; two microorganisms associated with urinary tract infections. Sulfanilamide concentrations of 0.1% and 0.01% were tested and bacterial levels monitored over a period of 5 minutes. Representative colonies of the challenge microorganisms, from an 18-24 hour challenge culture plate, were dispersed in MRD to obtain an optical density (OD540 nm) equivalent to approximately 1×10^8 CFU/mL. This was diluted to obtain a working concentration of 1×10^6 CFU/mL. A quantitative count was performed to confirm the inoculum level. The challenge organism was prepared in MRD to a concentration of approximately 1×10^6 CFU/mL. This suspension was added in a 1 mL volume to 9 mL of sample (n=3 per sample, n=2 per control) in a sterile 30 mL universal and pipetted up and down to mix. Following each testing period, 5 seconds, 30 seconds, 1 minute, 2 minutes and 5 minutes, 100 μL of the test solution was transferred to 0.9 mL and 9.9 mL volumes of DENB (1:10 and 1:100 dilutions, respectively). The most appropriate dilutions were inoculated (100 pL) onto duplicate pre-dried (tryptone soy agar) TSA plates and the inoculum spread using separate sterile L-shaped spreaders (for 10-1 and 10-2 dilutions, 0.5 mL were placed onto duplicate plates). The TSA plates were allowed to dry before being inverted and incubated at 35±3° C. for at least 48 hours. Following the incubation period, the number of bacterial colonies were counted on the most appropriate dilution for each dressing type i.e. between 25-250 CFU/plate. The samples tested were: 0.1% sulfanilamide in sterile deionised water (SDW); 0.01% sulfanilamide in SDW; 100 ppm hypochlorous acid in SDW; and a SDW control.

Assay [2] relates to Enterococcus faecalis NCTC 12201. The description is as above. The assay is classed as cell-based. As for the experimental part:
as §1

The test system of assay [3] is Escherichia coli NCIMB 14067. In words: Antimicrobial activity along the catheter method (Assessment 6b). In kind it is cell-based. Conditions: concentration 300 ppm or above; each section of GentleCath Air 2.0 CH14 catheter; two minutes. How it is done: Representative colonies from an 18-24 hour challenge culture plate were dispersed in maximum recovery diluent (MRD) to obtain an optical density (OD540 nm) equivalent to approximately I×lO^8 CFU/ml. This was diluted to obtain a working concentration of I×lO^4 CFU/ml. A quantitative count was performed to confirm the inoculum level.
The bacteria tested were Escherichia coli NCIMB 14067 which are bacteria that are commonly associated with causing CAUTI.
GentleCath Air 2.0 CH14 (manufactured by ConvaTec Inc.) intermittent urinary catheters were used for the assessment. Each catheter was prepared within a laminar flow cabinet to maintain sterility. In the assessment, each catheter was hydrated with a 100, 150, 200, 300, 675 or 1000 ppm hypochlorous acid solution. A further catheter was hydrated with sterile deionised water (SDW) and was used as a control.
Enough samples were prepared for n=3 and controls for n=1 per challenge organism.
Each catheter was hydrated with a hypochlorous solution as described above, as per the IFU, and removed from its packaging.
Each catheter was cut into three sections, each section having a length of 2.5 cm, beginning at the tip of the catheter (section 1) and ending proximal to the handle of the catheter (section 3). […]

In assay [4] the test system is Pseudomonas aeruginosa NCIMB 8626. In words: Direct inoculation method (Assessment 6a). The assay is classed as cell-based. The following applies: 250 ppm solution. How it is done: (§2) Representative colonies from an 18-24 hour challenge culture plate were dispersed in a 500 µl aliquot of maximum recovery diluent (MRD) to obtain an optical density (OD540 nm) equivalent to approximately I×lO^8 CFU/ml. This was diluted to obtain a working concentration of I×lO^7 CFU/ml. A quantitative count was performed to confirm the inoculum level.
(§3) The bacteria tested were Escherichia coli NCIMB 14067, ESBL Producing Klebsiella pneumoniae NCTC 13465, Enterococcus faecalis NCTC 12201, Proteus mirabilis NCTC 9559 and Pseudomonas aeruginosa NCIMB 8626, which each are commonly associated with causing CAUTI.
(§4) 5 pl of the I×lO^7 CFU/ml challenge suspension was added to a 500 pl aliquot of hypochlorous acid solution (250 ppm) (n=3 per challenge organism, per timepoint) and mixed to form a suspension.
(§5) Following 10 seconds, 1 minute and 2 minutes from adding the challenge suspension to the aliquot of hypochlorous acid, samples were taken from the suspension to establish the number of challenge organisms remaining. This was performed by removing 100 pl volumes and transferring to 0.9 ml and 9.9 ml DENB (for 1:10 and 1:100 dilutions respectively). Appropriate serial dilutions were performed and inoculated onto pre-dried Tryptone Soy Agar (TSA) plates to establish the numbers remaining.

Assay [5] concerns Escherichia coli NCIMB 14067. In words: Direct inoculation method (Assessment 6a). In kind it is cell-based. Conditions: 250 ppm solution. As for the experimental part:
as §2, §3, §4, §5

Assay [6] has as its system Proteus mirabilis NCTC 9559. In words: Direct inoculation method (Assessment 6a). The assay is classed as cell-based. Conditions: 250 ppm solution. As for the experimental part: as §2, §3, §4, §5
In assay [7] the test system is ESBL Producing Klebsiella pneumoniae NCTC 13465. Briefly: Direct inoculation method (Assessment 6a). In kind it is cell-based. The following applies: 250 ppm solution. How it is done: as §2, §3, §4, §5
Assay [8] concerns Enterococcus faecalis NCTC 12201. Briefly: Direct inoculation method (Assessment 6a). The assay is classed as cell-based. The following applies: 250 ppm solution. As for the experimental part:
as §2, §3, §4, §5

Assay [9] concerns E. coli NCIMB 14067. Briefly: Antimicrobial residual test (Assessment 6c). The assay is classed as cell-based, Escherichia coli. The following applies: for Antimicrobial residual test result (growth of challenge organism): 40 µl on sterile filter. How it is done: (§6) Representative colonies from an 18-24 hour challenge culture plate were dispersed in maximum recovery diluent (MRD) to obtain an optical density (OD540 nm) equivalent to approximately I×lO^8 CFU/ml. This was diluted to obtain a working concentration of I×lO^6 CFU/ml. A quantitative count was performed to confirm the inoculum level. The bacteria tested were Escherichia coli NCIMB 14067, Enterococcus faecalis NCTC 12201, which each are commonly associated with causing CAUTI. 40 pl of a hypochlorous acid solution (250 ppm), representative of the amount of hypochlorous acid that is left on a catheter following hydration, was placed onto sterile filters. A 40 pl volume of maximum recovery diluent (MRD) was placed onto a further sterile filter as a negative control. A 40 pl volume of approximate 2% […] was placed onto a further sterile filter as a positive control. The filters used were Grade 427 mm Whatman Filters. Following timepoints of 0 minutes, 30 minutes and 4 hours from adding the hypochlorous acid solutions and control to respective sterile filters, each sterile filter was then inoculated with lOpl of IxlO^6 CFU/ml challenge suspension of bacteria, prepared as described above, and left undisturbed for two minutes (to represent approximate urination time). Following the two minutes, the filters were homogenised in Dey-Engley Neutralising Broth (DENB) and appropriate serial dilutions were performed and inoculated onto pre-dried Tryptone Soy Agar (TSA) plates to establish the bacteria numbers remaining.

In the next assay the test system is E. faecalis NCTC 12201. In words: Antimicrobial residual test (Assessment 6c). The assay is classed as cell-based, Enterococcus faecalis. Conditions: for Antimicrobial residual test result (growth of challenge organism): 40 µl on sterile filter. As for the experimental part: as §6
Assay [10] has as its system E. coli NCIMB 14067. In words: Antimicrobial efficacy of very low hypochlorous acid concentrations, suspension test (Further Assessment 2). The assay is classed as cell-based, Escherichia coli. Conditions: for bacterial recovery: 10 ppm solution; for numbers of bacteria recovered: after 30 seconds. How it is done:
The antimicrobial efficacy of hypochlorous acid was tested at even lower concentrations (10, 25, and 50 ppm) against the challenging organism E. coli NCIMB 14067. The representative colonies of E. coli NCIMB 14067 were dispersed in maximum recovery diluent (MRD) to obtain an optical density (OD540 nm) equivalent to approximately […]. A quantitative plate count was performed on this suspension to determine the total number of viable organisms inoculated. A new suspension was prepared for each concentration tested. A 1000 ppm hypochlorous acid solution was diluted in sterile deionised water to provide the respective 10, 25 and 50 ppm hypochlorous acid solutions. The hypochlorous acid samples were aliquoted into 9 mL volumes and 1 mL of the challenge organism suspension was added and mixed (the final number of bacteria present is now approximately 1×10^6 CFU/mL). Following 5, 30 seconds, 1, 2, and 5 minutes, 100 pL volumes were sampled and transferred to 0.9 mL and 9.9 mL of Dey-Engley Neutralising Broth (DENB) (to provide a 1:10 and 1:100 dilution respectively), and total viable counts were performed to establish the amount present. The plates were left to dry before being inverted and incubated at 35+3° C. for at least 48 hours. A negative control was also tested whereby 1 mL of the challenge organism suspension was added to 9 mL of MRD and tested as previously described. Following the incubation period, the number of CFUs were counted on the most appropriate dilution for each sample i.e. between 25-250 CFU/plate.

The mark [11] stands for this setting: 0.1% and 0.01% in SDW, any timepoint from 5 seconds to 5 minutes.
[12] abbreviates: inoculated at 0 hour (plus 2 minutes).
[13] abbreviates: inoculated at 30 minutes (plus 2 minutes).
Where [14] appears, read: inoculated at 4 hours (plus 2 minutes).
Where [15] appears, read: 250 ppm solution on sterile filter.
Where [16] appears, read: 100 ppm in SDW, within 5 seconds and for the remaining testing period (to 5 minutes).

As to `Nc1ccc(S(N)(=O)=O)cc1` [sulfanilamide, reference compound], the “challenge organism numbers compared to the control” value in [1] (setting [11]) and in [2] (setting [11]) was “no decrease in challenge organism numbers” in each case.
For the compound `OCl` [hypochlorous acid], the bacterial cell death result in assay [3] is reported as “greater than 93%”. In addition, the “Bacterial numbers reduced to the detection limit (>5 log reduction)” value in assay [4] (10 seconds), in [4] (1 minute), in [4] (2 minutes), in [5] (10 seconds), in assay [5] (1 minute) and in assay [5] (2 minutes) was “Yes” in each case. Further, the “Bacterial numbers reduced to the detection limit (>5 log reduction)” value in [6] (10 seconds), in assay [6] (1 minute), in [6] (2 minutes), in assay [7] (10 seconds), in assay [7] (1 minute) and in assay [7] (2 minutes) was “Yes” each time. The “Bacterial numbers reduced to the detection limit (>5 log reduction)” value in assay [8] (10 seconds), in assay [8] (1 minute) and in assay [8] (2 minutes) was “Yes” in each case. The “Antimicrobial residual test result (growth of challenge organism)” value is on record as “No growth” in the assay with E. coli NCIMB 14067 [9] (setting [12]); “Growth” with E. coli NCIMB 14067 [9] (setting [13]); “Growth” in the assay with E. coli NCIMB 14067 [9] (setting [14]); “No growth” in the assay on E. faecalis NCTC 12201 (setting [12]); “Growth” in the assay on E. faecalis NCTC 12201 (setting [13]); “Growth” with E. faecalis NCTC 12201 (setting [14]). Also, the “time by which antimicrobial activity was exhausted” value in the assay on E. coli NCIMB 14067 [9] (setting [15]) and in the assay on E. faecalis NCTC 12201 (setting [15]) was no more than 30 min each time. Also, the bacterial recovery entry is reported as “undetectable levels” with E. coli NCIMB 14067 [10] (1 minute timepoint) and “over 10 CFU/mL” in the assay on E. coli NCIMB 14067 [10] (at 30 seconds). Further, the “numbers of bacteria recovered” value with E. coli NCIMB 14067 [10] (25 ppm solution) and in the assay with E. coli NCIMB 14067 [10] (50 ppm solution) was “undetectable numbers of bacteria” throughout. The challenge organism numbers entry in assay [1] (setting [16]) and in assay [2] (setting [16]) was “undetectable numbers” each time.
